Assay results from patent US20120029075A1, “COMPOSITIONS CONTAINING C1 TO C7 ORGANIC ACID MONOGLYCERIDES AND GLYCEROL, THEIR PREPARATION AND USE AS ANTIBACTERIALS AND ANTI-MOULD AGENTS” (priority 2009, published 2012).
Like-named read-outs stand apart in the source and are kept apart here.

Columns and labels:
[1] = test system: Porcine Salmonella typhimurium; assay: In vitro antibacterial action, appearance of growth in Brain Heart Infusion, pH 6 (Tables 3 and 4); format: cell-based; details: for Incubation time and appearance of growth: pH 6, inoculation 10^5, Brain Heart Infusion, 3 replications; for Concentration exhibiting inhibitory potency (no growth) in all three replicates: porcine Salmonella typhimurium, tested 5000-40000 ppm
Penicillium spp = assay: In vitro sensitivity test towards filamentous fungi (Example 5), Penicillium; format: cell-based; details: 5 ml fungal suspension + 5 ml product, 24 hours at 20±4° C.; read after 5 days; control 97000
Description: (§1) In Vitro Sensitivity Tests towards Filamentous Fungi (Moulds)
(§2) Strains of Aspergillus spp, Penicillium spp and Fusarium spp were utilized for the test, having been isolated and identified during diagnostic activity at the IZSLER section of Forli from complete feeds used in the chicken industry. To prepare the inoculum, mycelium of pure cultures of the tested strains was collected using a swab. The material thus collected was dissolved in a culture broth (BHI—Brain Heart Infusion). 5 ml of the fungal suspension and an equal amount of the product to be tested were placed in contact in a test tube. The test tube was incubated at 20±4° C. for 24 hours.
(§3) After this time period, the fungal suspension was then seeded and enumerated.
(§4) The control suspension was obtained by placing 5 ml of fungal suspension+5 ml of diluent (Ringer's lactate) into a test tube. Reading of the tests was carried out after a 5 day incubation period at 20±4° C.

Aspergillus spp = assay: In vitro sensitivity test towards filamentous fungi (Example 5), Aspergillus; format: cell-based; details: 5 ml fungal suspension + 5 ml product, 24 hours at 20±4° C.; read after 5 days; control 450000
Description: as §1, §2, §3, §4

Fusarium spp = assay: In vitro sensitivity test towards filamentous fungi (Example 5), Fusarium; format: cell-based; details: 5 ml fungal suspension + 5 ml product, 24 hours at 20±4° C.; read after 5 days; control 310000
Description: as §1, §2, §3, §4

Salmonella typhimurium = assay: Antibacterial potency (Table 1), Salmonella typhimurium count
E. coli [2] = assay: Antibacterial potency (Table 1), E. coli count; format: cell-based
[3] = test system: Clostridium perfringens CP27; format: cell-based; details: for Incubation time and appearance of growth: inoculation 10^5, Brain Heart Infusion, 3 replications; for Concentration exhibiting inhibitory potency (no growth) in all three replicates: Clostridium perfringens, tested 500-4000 ppm
Campylobacter jejuni = assay: Antibacterial potency (Table 1), Campylobacter jejuni count
E. coli [4] = assay: In vitro antibacterial action, appearance of growth in Brain Heart Infusion, pH 5 (Table 5); details: for Incubation time and appearance of growth: pH 5, inoculation 10^5, Brain Heart Infusion, 3 replications
[5] = pH 4.5, conc. used: Propionic acid 1:909, Butyric Acid 1:1000, Monobutyrin 43 1:100
[6] = pH 7, conc. used: Propionic acid 1:909, Butyric Acid 1:1000, Monopropionin 43 1:109, Monobutyrin 43 1:100

Molecule: CC(=O)O [Acetic acid]
- Incubation time and appearance of growth ([1]; 5000 ppm, Table 3): + (+ for 24 hr)
- Incubation time and appearance of growth ([1]; 10000 ppm, Table 3): + (+ for 24 hr)
- Incubation time and appearance of growth ([1]; 15000 ppm, Table 3): + (+ for 24 hr)
- Incubation time and appearance of growth ([1]; 20000 ppm, Table 3): no growth
- Incubation time and appearance of growth ([1]; 25000 ppm, Table 3): no growth
- Incubation time and appearance of growth ([1]; 30000 ppm, Table 3): no growth
- Incubation time and appearance of growth ([1]; 40000 ppm, Table 3): no growth
- Concentration exhibiting inhibitory potency (no growth) in all three replicates ([1]; acetic acid series): ≥ 20,000 ppm

Molecule: CCC(=O)O.N [Ammonium propionate]
- PENICILLIUM spp. count (Penicillium spp): 100 cfu/ml
- ASPERGILLUS spp. count (Aspergillus spp): 1000 cfu/ml
- FUSARIUM spp. count (Fusarium spp): 500 cfu/ml

Molecule: CCCC(=O)O [Butyric Acid]
- Salmonella typhimurium (cfu/ml) (Salmonella typhimurium; [5]): 25 × 10^3 cfu/ml
- Salmonella typhimurium (cfu/ml) (Salmonella typhimurium; [6]): 65 × 10^4 cfu/ml
- E. coli (cfu/ml) (E. coli [2]; [5]): 78 × 10^4 cfu/ml
- E. coli (cfu/ml) (E. coli [2]; [6]): 106 × 10^4 cfu/ml
- Incubation time and appearance of growth ([3]; 500 ppm): + (+ for 24 hr)
- Incubation time and appearance of growth ([3]; 1000 ppm): + (+ for 24 hr)
- Incubation time and appearance of growth ([3]; 1500 ppm): + (+ for 24 hr)
- Incubation time and appearance of growth ([3]; 2000 ppm): ++ (++ for 37 hr)
- Incubation time and appearance of growth ([3]; 2500 ppm): ++ (++ for 37 hr)
- Incubation time and appearance of growth ([3]; 3000 ppm): no growth
- Incubation time and appearance of growth ([3]; 4000 ppm): no growth
- Concentration exhibiting inhibitory potency (no growth) in all three replicates [3]: ≥ 3000 ppm
- Campylobacter jejuni (cfu/ml) (Campylobacter jejuni; [5]): 2 × 10^1 cfu/ml
- Campylobacter jejuni (cfu/ml) (Campylobacter jejuni; [6]): 18 × 10^3 cfu/ml

Molecule: O=C(O)/C=C/C(=O)O [Fumaric acid]
- Incubation time and appearance of growth (E. coli [4]; 10000 ppm): + (+ for 24 hr)
- Incubation time and appearance of growth (E. coli [4]; 20000 ppm): + (+ for 24 hr)
- Incubation time and appearance of growth (E. coli [4]; 40000 ppm): + (+ for 24 hr)
- Incubation time and appearance of growth (E. coli [4]; 60000 ppm): ++ (++ for 37 hr)
- Incubation time and appearance of growth (E. coli [4]; 80000 ppm): ++ (++ for 37 hr)
- Incubation time and appearance of growth (E. coli [4]; 90000 ppm): no growth
- Incubation time and appearance of growth (E. coli [4]; 100000 ppm): no growth
- Concentration exhibiting inhibitory potency (no growth) in all three replicates (E. coli [4]; E. coli, tested 10000-100000 ppm): ≥ 90,000 ppm

Molecule: CCC(=O)O [Propionic acid]
- Salmonella typhimurium (cfu/ml) (Salmonella typhimurium; [5]): 42 × 10^3 cfu/ml
- Salmonella typhimurium (cfu/ml) (Salmonella typhimurium; [6]): 11 × 10^4 cfu/ml
- PENICILLIUM spp. count (Penicillium spp): <100 cfu/ml
- E. coli (cfu/ml) (E. coli [2]; [5]): 13 × 10^4 cfu/ml
- E. coli (cfu/ml) (E. coli [2]; [6]): 54 × 10^4 cfu/ml
- ASPERGILLUS spp. count (Aspergillus spp): 300 cfu/ml
- FUSARIUM spp. count (Fusarium spp): 300 cfu/ml
- Campylobacter jejuni (cfu/ml) (Campylobacter jejuni; [5]): 14 × 10^1 cfu/ml
- Campylobacter jejuni (cfu/ml) (Campylobacter jejuni; [6]): 33 × 10^3 cfu/ml

Molecule: Butyric acid monoglycerides
- Incubation time and appearance of growth ([3]; 500 ppm): + (+ for 24 hr)
- Incubation time and appearance of growth ([3]; 1000 ppm): + (+ for 24 hr)
- Incubation time and appearance of growth ([3]; 1500 ppm): + (+ for 24 hr)
- Incubation time and appearance of growth ([3]; 2000 ppm): + (+ for 24 hr)
- Incubation time and appearance of growth ([3]; 2500 ppm): + (+ for 24 hr)
- Incubation time and appearance of growth ([3]; 3000 ppm): + (+ for 24 hr)
- Incubation time and appearance of growth ([3]; 4000 ppm): + (+ for 24 hr)
- Concentration exhibiting inhibitory potency (no growth) in all three replicates [3]: do not exhibit any inhibitory potency

Molecule: Formic acid monoglycerides
- Incubation time and appearance of growth ([1]; 5000 ppm, Table 4): + (+ for 24 hr)
- Incubation time and appearance of growth ([1]; 10000 ppm, Table 4): + (+ for 24 hr)
- Incubation time and appearance of growth ([1]; 15000 ppm, Table 4): + (+ for 24 hr)
- Incubation time and appearance of growth ([1]; 20000 ppm, Table 4): + (+ for 24 hr)
- Incubation time and appearance of growth ([1]; 25000 ppm, Table 4): no growth
- Incubation time and appearance of growth ([1]; 30000 ppm, Table 4): no growth
- Incubation time and appearance of growth ([1]; 40000 ppm, Table 4): no growth
- Concentration exhibiting inhibitory potency (no growth) in all three replicates ([1]; formic acid series): ≥ 25,000 ppm
